Values of other authors, collected in PubChem BioAssay AID1259409 (Chemical Carcinogenesis Research Information System (CCRIS), 2018).

Tested on: rodent chemically induced tumor inhibition, incidence and multiplicity
Experiment: CCRIS tumor inhibitor studies
Settings: Dose [Inhibitor]: 0, Route [Inhibitor]: DERMAL, Promoter: 12-O-TETRADECANOYLPHORBOL-13-ACETATE, 16561-29-8

Structure (SMILES) | tumour outcome (control, treated, inhibition, significance) (Carcinogen: 7,12-DIMETHYLBENZ[A]ANTHRACENE, 57-97-6, 85 NMOL 2/WK BEGINNING 1 WK POST CARCINOGEN DOSE (STUDY DURATION: 20 WK), Species: MOUSE, Strain/Sex: ICR/FEMALE, Target Tissue: Type of Lesion: SKIN: PAPILLOMA, Dose [Carcinogen]: 390 NMOL) | tumour outcome (control, treated, inhibition, significance) (Carcinogen: 7,12-DIMETHYLBENZ[A]ANTHRACENE : 57-97-6, 2 UMOL IN 200 µL ACETONE 2/WK FOR 20 WK BEGINNING 1 WK POST CARCINOGEN DOSE (STUDY DURATION: 20 WK), Species: MOUSE, Strain/Sex: CD-1/FEMALE, Target Tissue: Type of Lesion: SKIN: TUMOR, Dose [Carcinogen]: 200 NMOL IN 200 µL ACETONE ONCE) | tumour outcome (control, treated, inhibition, significance) (Carcinogen: 7,12-DIMETHYLBENZ[A]ANTHRACENE, 57-97-6, 0.1 UMOL IN 200 µL ACETONE 2/WK FOR 18 WK BEGINNING 1 WK POST CARCINOGEN DOSE (STUDY DURATION: 18 WK), Species: MOUSE, Strain/Sex: CD-1/FEMALE, Target Tissue: Type of Lesion: SKIN: TUMOR, Dose [Carcinogen]: 200 NMOL IN 200 µL ACETONE ONCE) | tumour outcome (control, treated, inhibition, significance) (Carcinogen: 7,12-DIMETHYLBENZ[A]ANTHRACENE, 57-97-6, 0.3 UMOL IN 200 µL ACETONE 2/WK FOR 18 WK BEGINNING 1 WK POST CARCINOGEN DOSE (STUDY DURATION: 18 WK), Species: MOUSE, Strain/Sex: CD-1/FEMALE, Target Tissue: Type of Lesion: SKIN: TUMOR, Dose [Carcinogen]: 200 NMOL IN 200 µL ACETONE ONCE) | tumour outcome (control, treated, inhibition, significance) (Carcinogen: 7,12-DIMETHYLBENZ[A]ANTHRACENE, 57-97-6, 1 UMOL IN 200 µL ACETONE 2/WK FOR 18 WK BEGINNING 1 WK POST CARCINOGEN DOSE (STUDY DURATION: 18 WK), Species: MOUSE, Strain/Sex: CD-1/FEMALE, Target Tissue: Type of Lesion: SKIN: TUMOR, Dose [Carcinogen]: 200 NMOL IN 200 µL ACETONE ONCE) | tumour outcome (control, treated, inhibition, significance) (Carcinogen: 7,12-DIMETHYLBENZ[A]ANTHRACENE, 57-97-6, 1 UMOL IN 200 µL ACETONE 2/WK FOR 20 WK BEGINNING 1 WK POST CARCINOGEN DOSE (STUDY DURATION: 20 WK), Species: (30,30)/(30,30), Strain/Sex: CD-1/FEMALE, Target Tissue: Type of Lesion: SKIN: TUMOR, Dose [Carcinogen]: 200 NMOL IN 200 µL ACETONE ONCE) | tumour outcome (control, treated, inhibition, significance) (Carcinogen: 7,12-DIMETHYLBENZ[A]ANTHRACENE, 57-97-6, 2 UMOL IN 200 µL ACETONE 2/WK FOR 18 WK BEGINNING 1 WK POST CARCINOGEN DOSE (STUDY DURATION: 18 WK), Species: MOUSE, Strain/Sex: CD-1/FEMALE, Target Tissue: Type of Lesion: SKIN: TUMOR, Dose [Carcinogen]: 200 NMOL IN 200 µL ACETONE ONCE)
COC1=CC(=O)[C@]2(C=C1OC)OC[C@H]1Oc3c(ccc4c3C=CC(C)(C)O4)C(=O)[C@H]12 | 100%, 20%, 80%, not calculated | – | – | – | – | – | –
C[C@H]1[C@H](C)CC[C@]2(C(=O)O)CC[C@]3(C)C(=CC[C@@H]4[C@@]5(C)CC[C@H](O)C(C)(C)[C@@H]5CC[C@]43C)[C@H]12 | – | 93%, 62%, 33%, not significant | 87%, 87%, 0%, not significant | 87%, 93%, -7%, not significant | 87%, 77%, 11%, not significant | 93%, 80%, 14%, not significant | 87%, 60%, 31%, not significant
